Some test systems named below: A498; A549; BT-549; DU-145; EKVX; HL-60; HOP-62; HOP-92; Hs-578T; K562; KM12; LOX IMVI; MCF7; MDA-MB-435; NCI-H23; OVCAR-4; RXF 393; SW-620; T47D; UACC-257.
Holding throughout (experiment): growth of human tumour cells (NCI), 48 h

Each structure is given as a SMILES string.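 Five concentrations, 48 hours, 96-well plates. GI50 marks 50% less growth.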 Calls of active or inactive are those of the source. No stated cut-off is given here; in the data, active = GI50 up to about 1.1 µM and inactive = higher.

As for `COc1cc(/C=C2\N=C(c3ccccc3)N(c3nc4c(OC)ccc(OC)c4s3)C2=O)cc(OC)c1OC`, the GI50 in the test on A498 is > 100 µM (inactive); in the test on A549 it was > 100 µM (inactive); in the test on BT-549, > 100 µM (inactive); in the test on DU-145, > 100 µM (inactive); in the test with EKVX it was > 100 µM (inactive); in the test with HL-60, 30.4 µM (inactive). Moreover, the GI50 in the test on HOP-62 was > 100 µM (inactive); with HOP-92 it was > 100 µM (inactive); with Hs-578T it was > 100 µM (inactive); in the test with K562, 34.8 µM (inactive); in the test on KM12, 61.8 µM (inactive); in the test with LOX IMVI it was 51.8 µM (inactive). Moreover, the GI50 in the test on MCF7 is 34.3 µM (inactive); with MDA-MB-435, 31.3 µM (inactive); in the test on NCI-H23, > 100 µM (inactive); with OVCAR-4, > 100 µM (inactive); with RXF 393 it was 85.1 µM (inactive); in the test with SW-620, 49.7 µM (inactive). In addition, the results for the GI50 in the test on T47D and in the test on UACC-257 were 32.4 µM (inactive) and 55.6 µM (inactive), respectively.
With `CCOC(=O)/C(=C\Nc1c(C)n(C)n(-c2ccccc2)c1=O)C(=O)c1ccccc1`, the GI50 with A498, in the test with A549, in the test with BT-549, with DU-145, with EKVX and in the test with HL-60 was > 100 µM (inactive) in each case. For the same molecule, the GI50 is > 100 µM (inactive) in the test with HOP-62; > 100 µM (inactive) in the test with HOP-92; > 100 µM (inactive) in the test with Hs-578T; > 100 µM (inactive) with K562; 0.033 µM (active) in the test with KM12; > 100 µM (inactive) with LOX IMVI. Moreover, the GI50 with MCF7, in the test with MDA-MB-435, in the test on NCI-H23, in the test on OVCAR-4, in the test on RXF 393 and with SW-620 was > 100 µM (inactive) in each case. The GI50 in the test on T47D and with UACC-257 was > 100 µM (inactive) each time.
As for `COc1ccc2c(c1)c1nn(CCN3CCCCC3)c3ccc4c(=O)n(CCN(C)C)c(=O)n2c4c13`, the GI50 is < 0.022 µM (active) with A498; < 0.01 µM (active) in the test with A549; 0.245 µM (active) in the test with BT-549; < 0.01 µM (active) in the test with DU-145; < 0.0142 µM (active) in the test on EKVX; 0.076 µM (active) with HL-60. In addition, the GI50 with HOP-62 was < 0.01 µM (active); in the test on HOP-92, 0.152 µM (active); in the test with Hs-578T it was < 0.0325 µM (active); in the test on K562, < 0.01 µM (active); with KM12 it was < 0.01 µM (active); in the test with LOX IMVI, < 0.01 µM (active). Also, the GI50 is < 0.01 µM (active) in the test with MCF7; < 0.0109 µM (active) in the test on MDA-MB-435; < 0.022 µM (active) in the test on NCI-H23; < 0.01 µM (active) in the test on OVCAR-4; < 0.0164 µM (active) with RXF 393; < 0.01 µM (active) in the test with SW-620. For the same molecule, the GI50 in the test with T47D was < 0.0175 µM (active); in the test on UACC-257 it was 0.244 µM (active).
Regarding `CN(CCCNC(=O)c1cc(-c2ccccc2)nc2ccccc12)CCCNC(=O)c1cc(-c2ccccc2)nc2ccccc12`, the GI50 in the test with A498 is 4.41 µM (inactive); in the test on A549, 3.96 µM (inactive); in the test with BT-549 it was 12.9 µM (inactive); with DU-145, 3.58 µM (inactive); in the test with EKVX, 6.1 µM (inactive); with HL-60 it was 2.19 µM (inactive). Besides, the GI50 is 1.82 µM (inactive) in the test with HOP-62; 2.64 µM (inactive) with HOP-92; 4.17 µM (inactive) in the test with Hs-578T; 1.99 µM (inactive) with K562; 2.02 µM (inactive) in the test on KM12; 1.85 µM (inactive) in the test on LOX IMVI. Moreover, the GI50 in the test on MCF7 was 1.48 µM (inactive); in the test on MDA-MB-435, 1.76 µM (inactive); in the test with NCI-H23 it was 6.35 µM (inactive); in the test with OVCAR-4, 3.54 µM (inactive); with RXF 393, 4.62 µM (inactive); with SW-620 it was 1.85 µM (inactive). The GI50 with T47D was 2.95 µM (inactive); in the test with UACC-257, 1.78 µM (inactive).
Turning to `O=C1c2ccccc2C(C2c3ccccc3C(=O)c3cc(Br)ccc32)c2ccc(Br)cc21` (stereo not given), the GI50 with A498 was > 100 µM (inactive); in the test on A549, > 100 µM (inactive); in the test with BT-549 it was > 100 µM (inactive); with DU-145 it was > 100 µM (inactive); in the test with EKVX, > 100 µM (inactive); in the test on HL-60, < 0.01 µM (active). The GI50 was > 100 µM (inactive) in the test on HOP-62; > 100 µM (inactive) in the test with HOP-92; > 100 µM (inactive) with Hs-578T; 31.8 µM (inactive) with K562; > 100 µM (inactive) with KM12; > 100 µM (inactive) in the test with LOX IMVI. The GI50 with MCF7, with MDA-MB-435, with NCI-H23, in the test on OVCAR-4, in the test with RXF 393 and in the test on SW-620 was > 100 µM (inactive) in each case. In addition, the GI50 in the test with T47D and in the test on UACC-257 was > 100 µM (inactive) in each case.
`CC1(c2ccc(Cl)cc2)CC(c2ccc(Cl)cc2)=C(C#N)C(=C(C#N)C#N)N1` (stereo not given): the GI50 was 18.5 µM (inactive) with A498; 20.4 µM (inactive) in the test with A549; 19.4 µM (inactive) in the test with BT-549; 14.9 µM (inactive) in the test with DU-145; 17.9 µM (inactive) in the test on EKVX; 19.7 µM (inactive) in the test with HL-60. Moreover, the GI50 in the test on HOP-62 is 7.36 µM (inactive); with HOP-92, 3.25 µM (inactive); in the test with Hs-578T it was 19.9 µM (inactive); in the test with K562, 13.8 µM (inactive); in the test with KM12, 19.9 µM (inactive); in the test with LOX IMVI, 17.3 µM (inactive). Moreover, the GI50 in the test on MCF7 is 18.9 µM (inactive); in the test with MDA-MB-435 it was 18 µM (inactive); in the test on NCI-H23, 17.3 µM (inactive); with OVCAR-4 it was 14.8 µM (inactive); with RXF 393, 13.1 µM (inactive); in the test on SW-620 it was 12 µM (inactive). The GI50 was 12.6 µM (inactive) in the test on T47D and 17.7 µM (inactive) with UACC-257.
For `CC1=NN(c2cccc(Cl)c2)C2(C1=Cc1cccs1)C(Cl)C(=O)N2c1nc2ccccc2s1` (stereo not given), the GI50 in the test with A498 is 21.8 µM (inactive); with A549 it was 21.9 µM (inactive); with BT-549, 25.2 µM (inactive); in the test on DU-145 it was 33.8 µM (inactive); in the test with EKVX, 19.5 µM (inactive); in the test with HL-60, 25.6 µM (inactive). Besides, the GI50 in the test with HOP-62 was 27.6 µM (inactive); in the test on HOP-92, 21.2 µM (inactive); in the test on Hs-578T, 27.4 µM (inactive); in the test with K562, 25.7 µM (inactive); in the test with KM12, 28.7 µM (inactive); in the test on LOX IMVI, 19.6 µM (inactive). Besides, the GI50 was 23.2 µM (inactive) in the test with MCF7; 30.4 µM (inactive) in the test with MDA-MB-435; 21.3 µM (inactive) with NCI-H23; 28.9 µM (inactive) with OVCAR-4; 21.1 µM (inactive) in the test with RXF 393; 38.4 µM (inactive) in the test with SW-620. The GI50 with T47D is 28.6 µM (inactive); in the test on UACC-257, 23.2 µM (inactive).
Regarding `Cc1c(C(=O)N2CCN(c3ccc([N+](=O)[O-])cc3)CC2)[n+]([O-])c2cc(Cl)c(Cl)cc2[n+]1[O-]`, the GI50 was 7.19 µM (inactive) in the test on A498; 20.2 µM (inactive) in the test on A549; 16.9 µM (inactive) in the test on BT-549; 19.8 µM (inactive) in the test on DU-145; 20.6 µM (inactive) in the test on EKVX; 28.4 µM (inactive) in the test on HL-60. Besides, the GI50 with HOP-62 was 21.7 µM (inactive); with HOP-92 it was 15.2 µM (inactive); with Hs-578T, 22.6 µM (inactive); in the test with K562, 26.5 µM (inactive); in the test on KM12, 36.8 µM (inactive); with LOX IMVI, 29.9 µM (inactive). The GI50 in the test with MCF7 is 16.2 µM (inactive); with MDA-MB-435 it was 35.7 µM (inactive); in the test on NCI-H23, 14.8 µM (inactive); in the test on OVCAR-4, 10.8 µM (inactive); with RXF 393, 13.6 µM (inactive); with SW-620 it was 21.6 µM (inactive). The GI50 with T47D is 17.1 µM (inactive); in the test on UACC-257 it was 35.6 µM (inactive).
Regarding `C[C@H]1S[C@H](c2c(Cl)cccc2Cl)N2Cc3ccccc3N=C12`, the GI50 with A498 is 24.5 µM (inactive); with A549, 15.2 µM (inactive); with BT-549 it was 28.2 µM (inactive); in the test with DU-145, 13.1 µM (inactive); with EKVX, 10.2 µM (inactive); in the test with HL-60, 5.9 µM (inactive). Also, the GI50 in the test on HOP-62 was 14 µM (inactive); in the test on HOP-92 it was 17.9 µM (inactive); in the test on Hs-578T it was 10.8 µM (inactive); in the test on K562, 25.7 µM (inactive); in the test with KM12 it was 12 µM (inactive); in the test with LOX IMVI it was 12.9 µM (inactive). The GI50 in the test on MCF7 was 14.2 µM (inactive); in the test on MDA-MB-435, 14.3 µM (inactive); with NCI-H23 it was 11 µM (inactive); in the test with OVCAR-4, 29.8 µM (inactive); in the test with RXF 393 it was 14.1 µM (inactive); in the test with SW-620, 25.1 µM (inactive). Also, the GI50 is 12.4 µM (inactive) in the test on T47D and 16.6 µM (inactive) in the test on UACC-257.
Consider `COC(=O)C1=C(C)NC(C)=C(C(=O)OC)C1c1nc2sccn2c1[N+](=O)[O-]`, for which the GI50 with A498 is > 100 µM (inactive); in the test on A549, > 100 µM (inactive); with BT-549, > 100 µM (inactive); in the test with DU-145, > 100 µM (inactive); in the test on EKVX, 96.4 µM (inactive); in the test on HL-60, > 100 µM (inactive). Besides, the GI50 in the test with HOP-62, in the test with HOP-92, in the test on Hs-578T, in the test with K562, in the test with KM12 and with LOX IMVI was > 100 µM (inactive) in each case. Moreover, the GI50 in the test with MCF7, in the test on MDA-MB-435, in the test on NCI-H23, in the test on OVCAR-4, in the test on RXF 393 and in the test on SW-620 was > 100 µM (inactive) throughout. Besides, the GI50 in the test with T47D and in the test with UACC-257 was > 100 µM (inactive) throughout.
